The values that follow come from patent US20260297542A1, “HERBICIDE RESISTANT PLANTS” (SYNGENTA CROP PROTECTION AG, priority 2023, published 2026).

Where a chain is given by its changes, count along the chain named. Like-named read-outs stand apart in the source and are kept apart here.

For experiment [1], the target named is T1, His-TEV-AtPP01 ΔcTP (SEQ ID NO: 370) (Arabidopsis thaliana, UniProt P55826).
T1 construct: with cTPs removed; made in house; host or cells: E. coli BL21 (DE3), His GraviTrap, partially purified
T1 sequence (P55826 with tags, fused parts or gaps): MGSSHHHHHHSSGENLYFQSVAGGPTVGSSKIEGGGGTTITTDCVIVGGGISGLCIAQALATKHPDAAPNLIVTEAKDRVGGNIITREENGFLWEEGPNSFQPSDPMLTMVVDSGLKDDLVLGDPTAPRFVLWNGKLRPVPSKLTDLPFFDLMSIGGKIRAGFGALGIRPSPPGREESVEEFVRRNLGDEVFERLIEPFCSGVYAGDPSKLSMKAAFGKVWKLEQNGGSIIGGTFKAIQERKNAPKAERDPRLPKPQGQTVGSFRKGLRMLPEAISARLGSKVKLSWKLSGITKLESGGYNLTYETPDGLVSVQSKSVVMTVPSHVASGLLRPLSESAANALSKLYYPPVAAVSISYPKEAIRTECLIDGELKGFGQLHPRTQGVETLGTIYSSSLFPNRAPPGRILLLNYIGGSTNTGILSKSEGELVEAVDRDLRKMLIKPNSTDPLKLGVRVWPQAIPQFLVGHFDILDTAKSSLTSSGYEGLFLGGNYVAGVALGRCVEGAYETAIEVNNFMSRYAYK
Nature of the experiment: PPO fluorescence IC50 assay, partially purified enzyme. The experiment is classed as biochemical. The source says: (§1) A pET24 plasmid containing a DNA sequence encoding variants of AtPPO1 derived from Arabidopsis thaliana with cTPs removed and both a 6×His tag and TEV protease cleavage tag added at the N-terminus, codon-optimised for expression in E. coli, and under control of a T7 promoter, was synthesised by Twist Bioscience. The following variants were synthesised: WT AtPPO1 (SEQ ID NO: 370), AtPPO1 L479M (SEQ ID NO: 371), AtPPO1 L479N (SEQ ID NO: 372), AtPPO1 S305L Y426V (SEQ ID NO: 374) and AtPPO1 S305L Y426V L479M (SEQ ID NO: 373). This plasmid was expressed in E. coli BL21 (DE3) with 50 μg/mL kanamycin selection. 10 mL of overnight cultures grown at 37° C. were used to inoculate 1 L AIM (AIM-Terrific Broth Base including Trace elements, Formedium) in 2 L shake flasks. Cultures were grown at 37° C., 200 rpm for 3 hours and then overnight at 26° C. Cells were harvested centrifugation. 5-15 g of cell pellet was lysed in and resuspended in ratio of 1:1.5 in lysis buffer (20 mM Tris pH8, 500 mM sodium chloride, 10% glycerol, 1× complete Protease EDTA-free Inhibitor Tablet (Roche), 10 mM imidazole). The resuspension was sonicated at 75% using 10 cycles of 30 seconds, 40 seconds off. After sonication Triton X-100 was added to the lysates at a final concentration of 0.5%. The lysates were centrifuged at 20,000 rpm for 25 min at 4° C. Cleared lysates were loaded on His GraviTrap (Cytiva) columns, washed with 20 mL of lysis buffer and eluted in elution buffer (20 mM Tris pH8, 500 mM sodium chloride, 10% glycerol, 200 mM imidazole, 0.03% (v/v) Triton X-100). The eluate was desalted on a PD10 column and 2.5-3.2 mL was collected. Protein concentration was measured and calculated using the absorbance at 280 nm. Extracts were diluted 1 in 4 and 10 uL was analysed by SDS PAGE.
(§2) Partially purified Protoporphyrinogen Oxidase enzymes were assayed for activity using fluorescence adapted from the method of Shepherd & Dailey (Anal Biochem. 2005 344(1) 115-121). The assay was performed in black 384 well plates with a clear bottom and the total volume of the reaction mixture was 91 ul. The final assay mixture contained 100 mM K2HPO4 pH7.2, 1 mM Na2EDTA, 5 mM DTT, 20% glycerol (v/v), 0.05% Tween 20 (v/v), 1.1% DMSO (v/v), 1 uM protoporphyrinogen IX and 1.5 nM enzyme. Compounds were dissolved in DMSO at 1 mM and a 4-fold serial dilution carried out to give 8 rates. 1 ul was added to the assay mixture. This gave final compound concentrations of 11, 2.7, 0.69, 0.17, 0.04, 0.01, 0.002, 0.0007 uM. Enzyme and inhibitor were preincubated for 5 minutes prior to starting the reaction with the addition of the substrate. […] IC50s were calculated using GraphPad Prism 7.05 nonlinear regression (Table 6). Each compound was tested in duplicate.

The target in experiment [2] is T2, His-TEV-AtPP01 ΔcTP L479N (SEQ ID NO: 372) (Arabidopsis thaliana, UniProt P55826, L479N).
T2 construct: with cTPs removed; made in house; host or cells: E. coli BL21 (DE3), His GraviTrap, partially purified
T2 sequence (P55826 with tags, fused parts or gaps L479N): T1 sequence (P55826 with tags, fused parts or gaps) with L464N
The description is as above. Format: biochemical.
Excerpt: as §1, §2

Setting [3] is: role: inhibitor, 1 uM protoporphyrinogen IX, <1.0 is below detection limit of assay.

Regarding `C#CCOc1cc(-n2nc3n(c2=O)CCCC3)c(Cl)cc1Cl` [Azafenadin], the IC50 in experiment [1] and in experiment [2] was 0.8 nM throughout.
With `C=CCOC(=O)C(C)(C)OC(=O)c1cc(-n2c(=O)cc(C(F)(F)F)n(C)c2=O)ccc1Cl` [Butafenacil, butafenacil], the IC50 in experiment [1] was found to be 0.6 nM; in experiment [2] it was 0.9 nM.
Regarding `COC(=O)C(C)ON=Cc1cc(-n2c(=O)cc(C(F)(F)F)n(C)c2=O)c(F)cc1Cl` (stereo not shown) [Flufenoximacil, flufenoximacil], the concentration for half-maximal inhibition (IC50) in experiment [1] (setting [3]) came out at 0.6 nM; in experiment [2] (setting [3]), 0.8 nM.
On to `C#CCN1C(=O)COc2cc(F)c(N3C(=O)C4=C(CCCC4)C3=O)cc21` [Flumioxazin, flumioxazin], for which the IC50 in experiment [1] came out at 0.8 nM; in experiment [2] it was 1 nM.
On the same counts, the results for `CS(=O)(=O)NC(=O)c1cc(Oc2ccc(C(F)(F)F)cc2Cl)ccc1[N+](=O)[O-]` [Fomesafen, fomesafen] are 1.8 nM and 1.4 nM.
On the same counts, the results for `CCOC(=O)COc1ncccc1Oc1cc(-n2c(=O)cc(C(F)(F)F)n(C)c2=O)c(F)cc1Cl` [Herbicide A, epyrifenacil] are 0.7 nM and 0.9 nM.
On the same counts, the results for `C#CCN1C(=O)C(F)(F)Oc2cc(F)c(-n3c(=O)n(C)c(=S)n(C)c3=O)cc21` [Herbicide B, trifludimoxazin] are 0.7 nM and 1 nM.
Take `CCOC(=O)C1(C)CC(c2cc(-n3c(=O)cc(C(F)(F)F)n(C)c3=O)c(F)cc2Cl)=NO1` (stereo not shown) [Herbicide C, 3-(2-chloro-4-fluoro-5-(3-methyl-2,6-dioxo-4-trifluoromethyl-3,6-dihydropyrimidin-1(2H)-yl)phenyl)-5-methyl-4,5-dihydroisoxazole-5-carboxylic acid ethyl ester]: the figures for the IC50 in experiment [1] and in experiment [2] were 0.7 nM and 0.9 nM, respectively.
`CCOC(=O)[C@]1(C)CC(c2cc(-n3c(=O)n(C)c(=S)n(C)c3=O)c(F)cc2Cl)=NO1` [Herbicide D, ethyl (5S)-3-[2-chloro-5-(3,5-dimethyl-2,6-dioxo-4-thioxo-1,3,5-triazinan-1-yl)-4-fluoro-phenyl]-5-methyl-4H-isoxazole-5-carboxylate] yielded a half-inhibitory concentration (IC50) in experiment [2] of 0.8 nM.
For `CC(C)N(C)S(=O)(=O)NC(=O)c1cc(-n2c(=O)cc(C(F)(F)F)n(C)c2=O)c(F)cc1Cl` [Herbicide E, saflufenacil], the half-inhibitory concentration (IC50) is 2.1 nM in experiment [1] and 2.6 nM in experiment [2].
On the same counts, the results for `CC(C)Oc1cc(-n2nc(C(C)(C)C)oc2=O)c(Cl)cc1Cl` [Oxadiazaon] are 19 nM and 6.1 nM.
Regarding `C#CCN(C)c1c(C#N)cnn1-c1nn2c(c1Cl)CCCC2` [Pyraclonil], the half-maximal inhibitory concentration (IC50) in experiment [1] was found to be 2.5 nM; in experiment [2], 1.5 nM.
In the case of `CCOC(=O)COc1cc(-c2nn(C)c(OC(F)F)c2Cl)c(F)cc1Cl` [Pyraflufen-ethyl, pyraflufen-ethyl], the figures for the half-maximal inhibitory concentration (IC50) in experiment [1] and in experiment [2] were 0.6 nM and 0.8 nM, respectively.
